pIC50: −log10 of the molar value. Structures can show the parent of a compound that is named as a salt.

The assay has as its target T1, human MGL from HeLa cells (Homo sapiens, UniProt Q99685).
T1 construct: combining endogenously expressed MGL from HeLa cells with test compounds; endogenous in cells; host or cells: HeLa cells / cell homogenates
T1 sequence (Q99685 1-303): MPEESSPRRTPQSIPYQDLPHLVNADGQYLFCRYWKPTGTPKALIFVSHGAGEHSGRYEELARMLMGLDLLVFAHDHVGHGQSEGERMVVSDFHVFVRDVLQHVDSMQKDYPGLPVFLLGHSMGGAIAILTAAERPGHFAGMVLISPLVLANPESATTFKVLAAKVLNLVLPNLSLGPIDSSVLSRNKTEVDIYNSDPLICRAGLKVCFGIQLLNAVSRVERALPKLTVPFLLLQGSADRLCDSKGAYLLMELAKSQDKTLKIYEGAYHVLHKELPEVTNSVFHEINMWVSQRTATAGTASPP
In words: In vitro MGL activity assay: [glycerol-1,3-3H]-oleyl glycerol cleavage by MGL from HeLa cells. Type of assay: biochemical. To be noted: 300 nM [Glycerol-1,3-3H]-oleyl glycerol, one hour. The source says:
MGL is the predominant hydrolase in HeLa cells/cell homogenates.
Usually pIC50 stands for −log10 of the IC50, conventionally taken in molar units. Higher therefore signals a low IC50. For the molecule `C[C@H]1c2nn(C)c(-c3cc(F)c(F)c(F)c3)c2CCN1C(=O)c1cc2c(cn1)OCCC2` [Example 573, 3,4-Dihydro-2H-pyrano[2,3-c]pyridin-6-yl-[(7S)-2,7-dimethyl-3-(3,4,5-trifluorophenyl)-5,7-dihydro-4H-pyrazolo[3,4-c]pyridin-6-yl]methanone], the pIC50 is 6.62.
The figure for `C[C@H]1c2nn(C)c(-c3cc(F)c(F)c(F)c3)c2CCN1C(=O)c1cccc2c1CCNC2` [Example 574, [(7S)-2,7-Dimethyl-3-(3,4,5-trifluorophenyl)-5,7-dihydro-4H-pyrazolo[3,4-c]pyridin-6-yl]-(1,2,3,4-tetrahydroisoquinolin-5-yl)methanone] is 6.48; for `C[C@H]1c2nn(C)c(-c3cc(F)c(F)c(F)c3)c2CCN1C(=O)c1cccc2c1CNCC2` [Example 575, [(7S)-2,7-Dimethyl-3-(3,4,5-trifluorophenyl)-5,7-dihydro-4H-pyrazolo[3,4-c]pyridin-6-yl]-(1,2,3,4-tetrahydroisoquinolin-8-yl)methanone] it is 7.14; for `C[C@H]1c2nn(C)c(-c3cc(F)c(F)c(F)c3)c2CCN1C(=O)c1cccc2c1CCOC2` [Example 576, [(7S)-2,7-Dimethyl-3-(3,4,5-trifluorophenyl)-5,7-dihydro-4H-pyrazolo[3,4-c]pyridin-6-yl]-isochroman-5-yl-methanone] it is 7.72.
To `C[C@H]1c2nn(C)c(-c3cc(F)c(F)c(F)c3)c2CCN1C(=O)c1ccc2c(c1)COCC2` [Example 577, [(7S)-2,7-Dimethyl-3-(3,4,5-trifluorophenyl)-5,7-dihydro-4H-pyrazolo[3,4-c]pyridin-6-yl]-isochroman-7-yl-methanone] belongs 7.49; to `C[C@H]1c2nn(C)c(-c3cc(F)c(F)c(F)c3)c2CCN1C(=O)c1ccc2c(c1)CCOC2` [Example 578, [(7S)-2,7-Dimethyl-3-(3,4,5-trifluorophenyl)-5,7-dihydro-4H-pyrazolo[3,4-c]pyridin-6-yl]-isochroman-6-yl-methanone], 7.56.
Molecule `C[C@H]1c2nn(C)c(-c3cc(F)c(F)c(F)c3)c2CCN1C(=O)c1cccc2c1COCC2` [Example 579, [(7S)-2,7-Dimethyl-3-(3,4,5-trifluorophenyl)-5,7-dihydro-4H-pyrazolo[3,4-c]pyridin-6-yl]-isochroman-8-yl-methanone] showed a pIC50 of 8.09.
To `C[C@H]1c2nn(C)c(-c3cc(F)c(F)c(F)c3)c2CCN1C(=O)c1ccc2c(c1)CCCO2` [Example 580, Chroman-6-yl-[(7S)-2,7-dimethyl-3-(3,4,5-trifluorophenyl)-5,7-dihydro-4H-pyrazolo[3,4-c]pyridin-6-yl]methanone] belongs 7.71; to `C[C@H]1c2nn(C)c(-c3cc(F)c(F)c(F)c3)c2CCN1C(=O)c1cccc2c1CCCO2` [Example 581, Chroman-5-yl-[(7S)-2,7-dimethyl-3-(3,4,5-trifluorophenyl)-5,7-dihydro-4H-pyrazolo[3,4-c]pyridin-6-yl]methanone], 7.81; to `C[C@H]1c2nn(C)c(-c3cc(F)c(F)c(F)c3)c2CCN1C(=O)c1ccc2c(c1)OCCC2` [Example 582, Chroman-7-yl-[(7S)-2,7-dimethyl-3-(3,4,5-trifluorophenyl)-5,7-dihydro-4H-pyrazolo[3,4-c]pyridin-6-yl]methanone], 8.12.
The figure for `C[C@H]1c2nn(C)c(-c3cc(F)c(F)c(F)c3)c2CCN1C(=O)c1cccc2c1OCCC2` [Example 583, Chroman-8-yl-[(7S)-2,7-dimethyl-3-(3,4,5-trifluorophenyl)-5,7-dihydro-4H-pyrazolo[3,4-c]pyridin-6-yl]methanone] is 8.85.
To `C[C@H]1c2nn(C)c(-c3cc(F)c(F)c(F)c3)c2CCN1C(=O)c1cccc2oc(=O)[nH]c12` [Example 584, 4-[(7S)-2,7-Dimethyl-3-(3,4,5-trifluorophenyl)-5,7-dihydro-4H-pyrazolo[3,4-c]pyridine-6-carbonyl]-3H-1,3-benzoxazol-2-one] belongs 6.52.
`C[C@H]1c2nn(C)c(-c3cc(F)c(F)c(F)c3)c2CCN1C(=O)c1cccc2oc(=O)n(C)c12` [Example 585, 4-[(7S)-2,7-Dimethyl-3-(3,4,5-trifluorophenyl)-5,7-dihydro-4H-pyrazolo[3,4-c]pyridine-6-carbonyl]-3-methyl-1,3-benzoxazol-2-one] showed a pIC50 of 7.59.
The figure for `C[C@H]1c2nn(C)c(-c3cc(F)c(F)c(F)c3)c2CCN1C(=O)c1ccc2oc(=O)[nH]c2c1` [Example 586, 5-[(7S)-2,7-Dimethyl-3-(3,4,5-trifluorophenyl)-5,7-dihydro-4H-pyrazolo[3,4-c]pyridine-6-carbonyl]-3H-1,3-benzoxazol-2-one] is 6.00.
Consider `C[C@H]1c2nn(C)c(-c3cc(F)c(F)c(F)c3)c2CCN1C(=O)c1cccc2[nH]c(=O)oc12` [Example 587, 7-[(7S)-2,7-Dimethyl-3-(3,4,5-trifluorophenyl)-5,7-dihydro-4H-pyrazolo[3,4-c]pyridine-6-carbonyl]-3H-1,3-benzoxazol-2-one], for which the pIC50 is 7.87.
The figure for `C[C@H]1c2nn(C)c(-c3cc(F)c(F)c(F)c3)c2CCN1C(=O)c1ccc2[nH]c(=O)oc2c1` [Example 588, 6-[(7S)-2,7-Dimethyl-3-(3,4,5-trifluorophenyl)-5,7-dihydro-4H-pyrazolo[3,4-c]pyridine-6-carbonyl]-3H-1,3-benzoxazol-2-one] is 7.95.
To `C[C@H]1c2nn(C)c(-c3cc(F)c(F)c(F)c3)c2CCN1C(=O)c1cccc2c1oc(=O)n2C` [Example 589, 7-[(7S)-2,7-dimethyl-3-(3,4,5-trifluorophenyl)-5,7-dihydro-4H-pyrazolo[3,4-c]pyridine-6-carbonyl]-3-methyl-1,3-benzoxazol-2-one] belongs 8.74.
Take `C[C@H]1c2nn(C)c(-c3cc(F)c(F)c(F)c3)c2CCN1C(=O)c1ccc2c(c1)OCC(=O)N2C` [Example 590, 7-[(7S)-2,7-Dimethyl-3-(3,4,5-trifluorophenyl)-5,7-dihydro-4H-pyrazolo[3,4-c]pyridine-6-carbonyl]-4-methyl-1,4-benzoxazin-3-one.TFA salt]: the pIC50 is 6.76.
On to `C[C@H]1c2nn(C)c(-c3cc(F)c(F)c(F)c3)c2CCN1C(=O)c1cccc2c1OCC(=O)N2C` [Example 591, [(7S)-2,7-8-[(7S)-2,7-Dimethyl-3-(3,4,5-trifluorophenyl)-5,7-dihydro-4H-pyrazolo[3,4-c]pyridine-6-carbonyl]-4-methyl-1,4-benzoxazin-3-one.TFA salt], for which the pIC50 was 8.38.
`C[C@H]1c2nn(C)c(-c3cc(F)c(F)c(F)c3)c2CCN1C(=O)c1cccc2c1OCCN2` [Example 592, 3,4-Dihydro-2H-1,4-benzoxazin-8-yl-[(7S)-2,7-dimethyl-3-(3,4,5-trifluorophenyl)-5,7-dihydro-4H-pyrazolo[3,4-c]pyridin-6-yl]methanone]: the pIC50 was 8.14.
To `COc1nccc(C(=O)N2CCc3c(nn(C)c3-c3ccc(F)c(C(F)F)c3)[C@@H]2C)c1C` [Example 593, [(7S)-3-[3-(Difluoromethyl)-4-fluoro-phenyl]-2,7-dimethyl-5,7-dihydro-4H-pyrazolo[3,4-c]pyridin-6-yl]-(2-methoxy-3-methyl-4-pyridyl)methanone] belongs 7.24.
To `COc1nccc(C(=O)N2CCc3c(nn(C)c3-c3cccc(C(C)(F)F)c3)[C@@H]2C)c1C` [Example 594, [(7S)-3-[3-(1,1-Difluoroethyl)phenyl]-2,7-dimethyl-5,7-dihydro-4H-pyrazolo[3,4-c]pyridin-6-yl]-(2-methoxy-3-methyl-4-pyridyl)methanone] belongs 6.48; to `COc1nccc(C(=O)N2CCc3c(nn(C)c3-c3ccc(F)c(OC(F)F)c3)[C@@H]2C)c1C` [Example 595, [(7S)-3-[3-(Difluoromethoxy)-4-fluoro-phenyl]-2,7-dimethyl-5,7-dihydro-4H-pyrazolo[3,4-c]pyridin-6-yl]-(2-methoxy-3-methyl-4-pyridyl)methanone], 6.97; to `C[C@H]1c2nn(C)c(-c3cc(F)cc(OC(F)F)c3)c2CCN1C(=O)c1ccc2c(c1)OCCC2` [Example 596, Chroman-7-yl-[(7S)-3-[3-(difluoromethoxy)-5-fluoro-phenyl]-2,7-dimethyl-5,7-dihydro-4H-pyrazolo[3,4-c]pyridin-6-yl]methanone], 7.54.
`COc1nccc(C(=O)N2CCc3c(nn(C)c3-c3cc(F)cc(OC(F)F)c3)[C@@H]2C)c1C` [Example 597, [(7S)-3-[3-(Difluoromethoxy)-5-fluoro-phenyl]-2,7-dimethyl-5,7-dihydro-4H-pyrazolo[3,4-c]pyridin-6-yl]-(2-methoxy-3-methyl-4-pyridyl)methanone]: the pIC50 is 7.60.
The figure for `COc1nccc(C(=O)N2CCc3c(nn(C)c3-c3ccc(F)c(C)c3)[C@@H]2C)c1C` [Example 598, [(7S)-3-(4-Fluoro-3-methyl-phenyl)-2,7-dimethyl-5,7-dihydro-4H-pyrazolo[3,4-c]pyridin-6-yl]-(2-methoxy-3-methyl-4-pyridyl)methanone] is 7.52.
The figure for `COc1c(C(=O)N2CCc3c(nn(C)c3-c3cc(F)c(F)c(F)c3)[C@@H]2C)ccnc1C` [Example 599, [(7S)-2,7-Dimethyl-3-(3,4,5-trifluorophenyl)-5,7-dihydro-4H-pyrazolo[3,4-c]pyridin-6-yl]-(3-methoxy-2-methyl-4-pyridyl)methanone] is 7.15; for `C[C@H]1c2nn(C)c(-c3cc(F)c(F)c(F)c3)c2CCN1C(=O)c1nc(-c2ccccc2)cn1C` [Example 600, [(7S)-2,7-Dimethyl-3-(3,4,5-trifluorophenyl)-5,7-dihydro-4H-pyrazolo[3,4-c]pyridin-6-yl]-(1-methyl-4-phenyl-imidazol-2-yl)methanone] it is 6.96.

Source of the values: US11820766B2, “Monoacylglycerol lipase modulators” (Janssen Pharmaceutica NV, priority 2018, dated 2023).
